PMC10353187, “Discovery of a new potent oxindole multi-kinase inhibitor among a series of designed 3-alkenyl-oxindoles with ancillary carbonic anhydrase inhibitory activity as antiproliferative agents” (BMC Chemistry, 2023)

How the values were obtained:
Experiment in all cases: Z'-LYTE kinase inhibition assay (SelectScreen)
Assay type in all cases: biochemical
VEGFR 2(KDR) = target: T1, VEGFR 2(KDR) (Homo sapiens, UniProt P35968)
T1 construct: purchased Thermo Fischer Scientific (SelectScreen service)
T1 sequence (P35968 20-1356): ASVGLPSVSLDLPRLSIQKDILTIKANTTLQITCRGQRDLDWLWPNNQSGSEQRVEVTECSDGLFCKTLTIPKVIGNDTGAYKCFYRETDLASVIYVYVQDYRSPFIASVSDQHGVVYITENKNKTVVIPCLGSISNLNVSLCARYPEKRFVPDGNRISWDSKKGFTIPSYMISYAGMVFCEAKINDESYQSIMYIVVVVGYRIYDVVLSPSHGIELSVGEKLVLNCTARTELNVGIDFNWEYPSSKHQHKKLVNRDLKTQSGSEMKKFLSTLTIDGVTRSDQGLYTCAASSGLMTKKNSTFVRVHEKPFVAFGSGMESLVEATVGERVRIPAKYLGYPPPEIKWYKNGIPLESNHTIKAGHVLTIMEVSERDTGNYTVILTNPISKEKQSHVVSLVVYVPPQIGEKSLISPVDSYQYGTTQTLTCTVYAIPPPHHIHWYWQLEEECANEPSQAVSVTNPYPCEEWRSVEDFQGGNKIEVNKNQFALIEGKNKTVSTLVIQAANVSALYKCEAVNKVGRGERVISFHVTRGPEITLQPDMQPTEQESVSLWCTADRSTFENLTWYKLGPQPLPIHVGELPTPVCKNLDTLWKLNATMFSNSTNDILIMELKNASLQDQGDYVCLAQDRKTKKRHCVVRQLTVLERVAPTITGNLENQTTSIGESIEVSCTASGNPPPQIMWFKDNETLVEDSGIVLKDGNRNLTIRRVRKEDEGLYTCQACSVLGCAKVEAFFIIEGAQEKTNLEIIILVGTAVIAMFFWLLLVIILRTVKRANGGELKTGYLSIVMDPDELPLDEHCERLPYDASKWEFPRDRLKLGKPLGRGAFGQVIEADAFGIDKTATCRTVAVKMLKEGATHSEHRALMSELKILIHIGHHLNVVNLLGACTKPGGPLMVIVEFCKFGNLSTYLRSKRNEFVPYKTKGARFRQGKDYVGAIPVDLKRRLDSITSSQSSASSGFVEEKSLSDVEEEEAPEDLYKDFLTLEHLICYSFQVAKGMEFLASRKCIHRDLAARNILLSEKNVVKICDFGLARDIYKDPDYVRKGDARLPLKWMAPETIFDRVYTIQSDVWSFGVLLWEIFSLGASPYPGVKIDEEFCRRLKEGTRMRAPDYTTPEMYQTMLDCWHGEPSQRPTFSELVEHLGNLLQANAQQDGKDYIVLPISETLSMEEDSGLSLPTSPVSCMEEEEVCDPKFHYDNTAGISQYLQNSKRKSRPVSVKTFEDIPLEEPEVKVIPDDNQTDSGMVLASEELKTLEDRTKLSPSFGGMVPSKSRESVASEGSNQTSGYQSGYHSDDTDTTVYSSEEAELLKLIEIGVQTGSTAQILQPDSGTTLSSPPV
Experimental: (§1) To test the potential kinase inhibitory activity of compound 15c, initial single dose testing was performed at 10 μM on a panel of kinases and their inhibition % were determined.
(§2) […]. Additional file 1; S3: In vitro biological activity).
(§3) The FGFR, VEGFR-2 and RET tyrosine kinase assays were carried out at Thermo Fischer Scientific, USA (www.thermofischer.com/selectscreen). (For further details see Additional file 1; S3: In vitro biological activity).
(§4) The FGFR, VEGFR-2 and RET tyrosine kinase assays were performed at Thermo Fischer Scientific, USA (www.thermofischer.com/selectscreen). The assay was performed to evaluate the inhibitory activity of the designed compound applying the Z'-LYTE biochemical assay employing a fluorescence-based, coupled-enzyme format based on the differential sensitivity of phosphorylate and non-phosphorylate peptides to the proteolytic cleavage. The peptide substrate is characterized with two fluorophores, one at each end, that make up a FRET pair ^9.
(§5) The Z´-LYTE biochemical assay employs a fluorescence-based, coupled-enzyme format and is based on the differential sensitivity of phosphorylated and non-phosphorylated peptides to proteolytic cleavage. The peptide substrate is labeled with two fluorophores—one at each end—that make up a FRET pair. In the primary reaction, the kinase transfers the gamma-phosphate of ATP to a single tyrosine, serine or threonine residue in a synthetic FRET-peptide. In the secondary reaction, a site-specific protease recognizes and cleaves non-phosphorylated FRET-peptides. Phosphorylation of FRET-peptides suppresses cleavage by the Development Reagent. Cleavage disrupts FRET between the donor (i.e., coumarin) and acceptor (i.e., fluorescein) fluorophores on the FRET-peptide, whereas uncleaved, phosphorylated FRET-peptides maintain FRET. A ratiometric method, which calculates the ratio (the Emission Ratio) of donor emission to acceptor emission after excitation of the donor fluorophore at 400 nm, is used to quantitate reaction progress, as shown in the equation below. A significant benefit of this ratiometric method for quantitating reaction progress is the elimination of wellto-well variations in FRET-peptide concentration and signal intensities. […]. Both cleaved and uncleaved FRET-peptides contribute to the fluorescence signals and therefore to the Emission Ratio. The extent of phosphorylation of the FRET-peptide can be calculated from the Emission Ratio. The Emission Ratio will remain low if the FRET-peptide is phosphorylated (i.e., no kinase inhibition) and will be high if the FRET-peptide is non-phosphorylated (i.e., kinase inhibition).
(§6) Test Compounds the Test Compounds are screened in 1% DMSO (final) in the well. For 10 point titrations, 3-fold serial dilutions are conducted from the starting concentration of the customer’s choosing. Peptide/Kinase Mixtures All Peptide/Kinase Mixtures are diluted to a 2X working concentration in the appropriate Kinase Buffer (see section Kinase Specific Assay Conditions for a complete description). ATP Solution All ATP Solutions are diluted to a 4X working concentration in Kinase Buffer (50 mM HEPES pH 7.5, 0.01% BRIJ-35, 10 mM MgCl2, 1 mM EGTA). ATP Km apparent is previously determined using a Z´-LYTE assay.

RET = target: T2, RET (Homo sapiens, UniProt P07949)
T2 construct: purchased Thermo Fischer Scientific (SelectScreen service)
T2 sequence (P07949 29-1114): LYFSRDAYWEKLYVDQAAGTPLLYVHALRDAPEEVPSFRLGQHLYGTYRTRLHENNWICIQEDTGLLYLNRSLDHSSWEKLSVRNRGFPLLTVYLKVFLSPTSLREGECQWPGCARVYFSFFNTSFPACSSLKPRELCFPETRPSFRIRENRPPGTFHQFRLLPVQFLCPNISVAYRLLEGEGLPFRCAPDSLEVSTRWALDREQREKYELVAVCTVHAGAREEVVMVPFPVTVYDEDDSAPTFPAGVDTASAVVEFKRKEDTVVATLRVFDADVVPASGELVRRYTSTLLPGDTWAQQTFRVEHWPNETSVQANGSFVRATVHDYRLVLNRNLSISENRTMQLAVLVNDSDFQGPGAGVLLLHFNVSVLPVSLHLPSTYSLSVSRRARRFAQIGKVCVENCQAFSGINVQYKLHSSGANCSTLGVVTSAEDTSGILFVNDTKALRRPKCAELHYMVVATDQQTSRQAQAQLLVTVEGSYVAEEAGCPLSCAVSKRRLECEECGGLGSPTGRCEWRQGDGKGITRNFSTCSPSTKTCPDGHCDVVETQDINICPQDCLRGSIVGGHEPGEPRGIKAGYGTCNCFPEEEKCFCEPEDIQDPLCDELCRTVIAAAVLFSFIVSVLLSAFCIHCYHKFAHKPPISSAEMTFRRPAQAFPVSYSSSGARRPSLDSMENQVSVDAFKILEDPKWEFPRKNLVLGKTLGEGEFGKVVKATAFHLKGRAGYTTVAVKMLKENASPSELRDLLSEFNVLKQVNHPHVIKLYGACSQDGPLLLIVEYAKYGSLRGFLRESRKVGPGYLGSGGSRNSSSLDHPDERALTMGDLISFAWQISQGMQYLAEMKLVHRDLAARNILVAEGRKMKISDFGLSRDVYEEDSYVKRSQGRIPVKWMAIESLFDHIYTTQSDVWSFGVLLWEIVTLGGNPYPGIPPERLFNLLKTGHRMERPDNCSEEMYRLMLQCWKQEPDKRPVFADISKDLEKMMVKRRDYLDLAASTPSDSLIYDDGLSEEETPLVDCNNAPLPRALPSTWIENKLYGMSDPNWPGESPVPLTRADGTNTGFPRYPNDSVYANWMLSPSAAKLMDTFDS
Experimental: as §1, §2, §3, §4, §5, §6

FGFR 1 = target: T3, FGFR 1 (Homo sapiens, UniProt P11362)
T3 construct: purchased Thermo Fischer Scientific (SelectScreen service)
T3 sequence (P11362 22-822): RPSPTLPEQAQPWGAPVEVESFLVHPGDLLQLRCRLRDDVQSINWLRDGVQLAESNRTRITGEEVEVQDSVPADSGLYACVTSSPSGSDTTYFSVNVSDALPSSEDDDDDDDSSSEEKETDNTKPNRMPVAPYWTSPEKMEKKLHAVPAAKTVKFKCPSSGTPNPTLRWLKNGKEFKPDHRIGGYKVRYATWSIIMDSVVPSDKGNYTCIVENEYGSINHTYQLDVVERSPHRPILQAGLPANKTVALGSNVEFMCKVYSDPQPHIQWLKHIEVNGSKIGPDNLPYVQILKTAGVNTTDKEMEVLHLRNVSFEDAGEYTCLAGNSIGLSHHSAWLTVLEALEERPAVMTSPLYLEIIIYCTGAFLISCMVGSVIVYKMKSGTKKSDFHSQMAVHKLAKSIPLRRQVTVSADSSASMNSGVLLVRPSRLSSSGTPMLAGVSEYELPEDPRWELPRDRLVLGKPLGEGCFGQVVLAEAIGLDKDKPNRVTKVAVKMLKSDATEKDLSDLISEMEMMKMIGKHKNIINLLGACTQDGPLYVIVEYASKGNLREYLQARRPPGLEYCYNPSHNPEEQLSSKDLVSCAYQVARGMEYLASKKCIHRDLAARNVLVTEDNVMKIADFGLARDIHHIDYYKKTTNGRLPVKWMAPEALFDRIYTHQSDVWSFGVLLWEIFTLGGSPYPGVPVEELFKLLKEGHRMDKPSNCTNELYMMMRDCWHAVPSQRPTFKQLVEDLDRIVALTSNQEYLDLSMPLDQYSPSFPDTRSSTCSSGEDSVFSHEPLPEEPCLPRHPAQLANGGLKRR
Experimental: as §1, §2, §3, §4, §5, §6

VEGFR 1(FLT1) = target: T4, VEGFR 1(FLT1) (Homo sapiens, UniProt P17948)
T4 construct: purchased Thermo Fischer Scientific (SelectScreen service)
Experimental: as §1, §3, §4, §5, §6

PDGFRA (PDGFR alpha) = target: T5, PDGFRA (PDGFR alpha) (Homo sapiens, UniProt P16234)
T5 construct: purchased Thermo Fischer Scientific (SelectScreen service)
Experimental: as §1, §3, §4, §5, §6

Kit = target: T6, Kit (Homo sapiens, UniProt P10721)
T6 construct: purchased Thermo Fischer Scientific (SelectScreen service)
T6 sequence (P10721 26-976): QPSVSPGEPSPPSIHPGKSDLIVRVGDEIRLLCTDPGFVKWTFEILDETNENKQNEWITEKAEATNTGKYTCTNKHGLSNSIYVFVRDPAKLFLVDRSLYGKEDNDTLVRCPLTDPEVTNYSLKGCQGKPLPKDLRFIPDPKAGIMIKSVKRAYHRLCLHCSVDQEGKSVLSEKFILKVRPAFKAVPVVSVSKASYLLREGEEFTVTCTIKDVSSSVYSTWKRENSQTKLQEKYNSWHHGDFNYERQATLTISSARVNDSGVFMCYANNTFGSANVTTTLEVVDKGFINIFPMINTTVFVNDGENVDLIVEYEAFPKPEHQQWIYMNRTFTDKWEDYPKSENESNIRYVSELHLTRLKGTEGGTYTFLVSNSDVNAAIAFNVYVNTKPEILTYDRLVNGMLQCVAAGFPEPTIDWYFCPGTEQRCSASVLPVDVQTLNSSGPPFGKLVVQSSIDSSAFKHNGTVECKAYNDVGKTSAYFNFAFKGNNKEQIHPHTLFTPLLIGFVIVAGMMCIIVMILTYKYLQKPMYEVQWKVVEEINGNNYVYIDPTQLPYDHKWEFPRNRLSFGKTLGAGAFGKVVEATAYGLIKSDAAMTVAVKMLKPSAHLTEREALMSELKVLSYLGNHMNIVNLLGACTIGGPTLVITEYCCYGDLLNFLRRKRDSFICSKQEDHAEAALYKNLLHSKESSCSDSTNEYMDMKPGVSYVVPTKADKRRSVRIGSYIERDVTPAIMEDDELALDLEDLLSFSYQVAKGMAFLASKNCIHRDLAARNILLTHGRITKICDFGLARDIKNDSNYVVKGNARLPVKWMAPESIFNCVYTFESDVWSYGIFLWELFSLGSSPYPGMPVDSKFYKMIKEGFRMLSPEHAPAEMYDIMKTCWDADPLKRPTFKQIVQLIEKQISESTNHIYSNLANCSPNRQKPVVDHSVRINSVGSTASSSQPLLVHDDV
Experimental: as §1, §3, §4, §5, §6

BRAF = target: T7, BRAF (Homo sapiens, UniProt P15056)
T7 construct: purchased Thermo Fischer Scientific (SelectScreen service)
T7 sequence (P15056 whole entry): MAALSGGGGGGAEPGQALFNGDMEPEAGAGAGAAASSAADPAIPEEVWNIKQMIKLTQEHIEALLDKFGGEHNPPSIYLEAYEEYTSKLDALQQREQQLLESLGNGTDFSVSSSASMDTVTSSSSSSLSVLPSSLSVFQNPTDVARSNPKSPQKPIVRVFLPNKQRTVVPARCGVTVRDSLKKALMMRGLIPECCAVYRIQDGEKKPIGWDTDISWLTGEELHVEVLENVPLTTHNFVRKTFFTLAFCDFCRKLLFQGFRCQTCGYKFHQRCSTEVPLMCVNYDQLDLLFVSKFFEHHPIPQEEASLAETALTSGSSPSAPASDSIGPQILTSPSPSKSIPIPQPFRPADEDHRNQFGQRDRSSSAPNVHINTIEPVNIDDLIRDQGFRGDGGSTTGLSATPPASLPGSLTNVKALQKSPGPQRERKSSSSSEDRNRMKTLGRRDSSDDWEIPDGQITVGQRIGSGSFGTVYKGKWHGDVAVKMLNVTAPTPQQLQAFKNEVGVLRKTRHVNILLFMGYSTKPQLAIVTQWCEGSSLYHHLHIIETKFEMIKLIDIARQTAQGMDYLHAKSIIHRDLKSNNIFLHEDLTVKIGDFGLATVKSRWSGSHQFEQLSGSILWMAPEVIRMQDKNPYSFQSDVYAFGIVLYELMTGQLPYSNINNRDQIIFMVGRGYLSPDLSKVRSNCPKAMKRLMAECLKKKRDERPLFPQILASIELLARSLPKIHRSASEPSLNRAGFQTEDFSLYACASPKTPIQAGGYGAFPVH
Experimental: as §1, §3, §4, §5, §6

c-Met = target: T8, c-Met (Homo sapiens, UniProt P08581)
T8 construct: purchased Thermo Fischer Scientific (SelectScreen service)
Experimental: as §1, §3, §4, §5, §6

[1] = five concentrations 10 nM–100 μM

SMILES: O=C(Nc1ccc(NC=C2C(=O)Nc3ccccc32)cc1)Nc1nccs1 [Compound 15c, 1-{4-[((2-Oxoindolin-3-ylidene)methyl)amino]phenyl}-3-(thiazol-2-yl)urea]
- inhibition at 10 µM (VEGFR 2(KDR); 10 uM): 73%
- IC50 (VEGFR 2(KDR); [1]): 117 nM
- inhibition at 10 µM (RET; 10 uM): 74%
- IC50 (RET; [1]): 1190 nM
- inhibition at 10 µM (FGFR 1; 10 uM): 74%
- IC50 (FGFR 1; [1]): 1290 nM
- inhibition at 10 µM (VEGFR 1(FLT1)): 40%
- inhibition at 10 µM (PDGFRA (PDGFR alpha)): 59%
- inhibition at 10 µM (Kit): 31%
- inhibition at 10 µM (BRAF): 69%
- inhibition at 10 µM (c-Met): 62%
